Laboratory results taken from patent US20040091477A1, “Immunosuppresive compositions” (priority 2003, published 2004).
Marks after values point to notes of the source that are not given here.

Legend:
[1] = molecular target: platelet activating factor receptor (PAFR) (Homo sapiens, UniProt P25105); settings: cited from earlier work
[2] = test system: cAMP-specific phosphodiesterase; settings: cited from earlier work
[3] = cited from earlier work
isolated rat hearts [4] = assay: Cardiac function of isolated working hearts of orally treated rats, 30 min global ischemia followed by reperfusion; type: ex vivo
Experimental: (§1) Male Sprague-Dawley rats were used for all studies. Rats were anesthetized with intraperitoneal pentobarbital sodium (60 mg/kg body weight) and then given intravenous heparin (500 IU/kg). After thoracotomy, the heart was excised and placed in ice cold perfusion buffer. Immediately after preparation, the aorta was cannulated, and the heart was perfused according to Langendorf method for a 5-min washout period at a constant perfusion pressure equivalent to 100 cm of water (10 kPa). The perfusion medium consisted of a modified Krebs-Henseleit bicarbonate buffer: 118 mM NaCl, 4.7 mM KCl, 1.7 mM CaCl2, 25 mM NaHCO3, 0.36 mM KH2PO4, 1.2 mM MgSO4, and 10 mM glucose. The left atrium was cannulated and the Langendorff system was switched to the working mode with a left atrial filling pressure of 17 cm of buffer (1.7 kPa) and aortic afterload pressure of 100 cm (10 kPa) of buffer. Aortic flow was measured by a calibrated rotameter, and coronary flow rate was measured by a timed collection of the coronary perfusate that dripped from the heart. After 10 min aerobic perfusion of the heart, the atrial inflow and aortic outflow lines were clamped at a point close to the origin of the aortic cannula. Reperfusion was initiated by unclamping the atrial inflow and aortic outflow lines. […] An epicardial ECG was recorded by a polygraph throughout the experimental period by two silver electrodes attached directly to the heart. ECGs were analyzed to determine the incidence of ventricular fibrillation (VF) and ventricular tachycardia (VT) and whether VF was non-sustained (spontaneously reverting to regular rhythm) or sustained (persisting through the first 3 min of reperfusion). After 3 min of ventricular fibrillation (sustained VF) hearts were defibrillated and myocardial function was recorded. The heart was considered to be in VF if an irregular undulating baseline was apparent on the ECG. […] In each instance, VT spontaneously switched to sinus rhythm or VF, therefore VT was considered non-sustained. The heart was considered to be in sinus rhythm if normal sinus complexes occurring in a regular rhythm were apparent on the ECG. Before ischemia and during reperfusion, heart rate (HR), coronary flow (CF) and aortic flow (AF) rates were registered. Left ventricular developed pressure (LVDP) which was defined as the difference between left ventricular systolic and end-diastolic pressure, and the first derivative of LVDP (+LVdp/dtmax) were also recorded (Experimetria, UK) by the insertion of a catheter into the left ventricle via the left atrium and mitral valve. […] Cardiac function data (HR, CF, AF, LVDP, and LVdp/dtmax), were expressed as the mean±SEM. One-way analysis of variance was first carried out, to test for any differences between the mean values of all groups. If differences were established, the values of the control, drug-free group were compared with those of the drug treated groups by a two-tailed t-test with the Bonferroni correction (Wallenstein et al., 1980, Circ. Res. 47:1-9). An analogue procedure was followed for distribution of discrete variables such as the incidence of VF and VT. An overall chi-square test for a 2×n table was constructed followed by a sequence of 2×2 chi-square tests to compare individual groups. A change of p<0.05 was considered significant.

isolated rat hearts [5] = assay: Reperfusion-induced arrhythmias (VF, VT) in isolated hearts of orally treated rats, 30 min global ischemia and 2 hours reperfusion; type: in vivo; settings: control 92%
Experimental: as §1

[6] = Schussler et al. 1995; cited from earlier work
[7] = FK506 1 mg/kg/day oral 10 days, after 30-min reperfusion
[8] = FK506 1 mg/kg/day oral 10 days, after 60-min reperfusion
[9] = FK506 1 mg/kg/day oral 10 days, after 120-min reperfusion
[10] = FK506 5 mg/kg/day oral 10 days, after 30-min reperfusion
[11] = FK506 5 mg/kg/day oral 10 days, after 60-min reperfusion
[12] = FK506 5 mg/kg/day oral 10 days, after 120-min reperfusion
[13] = FK506 10 mg/kg/day oral 10 days, after 30-min reperfusion
[14] = FK506 10 mg/kg/day oral 10 days, after 60-min reperfusion
[15] = FK506 10 mg/kg/day oral 10 days, after 120-min reperfusion
[16] = FK506 20 mg/kg/day oral 10 days, after 30-min reperfusion
[17] = FK506 20 mg/kg/day oral 10 days, after 60-min reperfusion
[18] = FK506 20 mg/kg/day oral 10 days, after 120-min reperfusion
[19] = FK506 40 mg/kg/day oral 10 days, after 30-min reperfusion
[20] = FK506 40 mg/kg/day oral 10 days, after 60-min reperfusion
[21] = FK506 40 mg/kg/day oral 10 days, after 120-min reperfusion

Chain of platelet activating factor receptor (PAFR) (P25105 whole entry, species assumed): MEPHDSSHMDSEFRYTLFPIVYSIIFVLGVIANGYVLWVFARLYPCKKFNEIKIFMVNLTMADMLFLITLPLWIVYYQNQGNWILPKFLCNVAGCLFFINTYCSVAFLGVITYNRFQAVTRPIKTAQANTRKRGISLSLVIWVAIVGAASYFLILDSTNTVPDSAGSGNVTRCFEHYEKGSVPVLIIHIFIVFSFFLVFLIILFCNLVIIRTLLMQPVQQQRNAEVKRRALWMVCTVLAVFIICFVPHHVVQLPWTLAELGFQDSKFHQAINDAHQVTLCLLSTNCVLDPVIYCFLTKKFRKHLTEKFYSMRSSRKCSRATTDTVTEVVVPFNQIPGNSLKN

ginkgolide C
PAFR antagonist activity (in words) [1]: PAFR antagonist

C[C@@H]1C(=O)O[C@@H]2[C@H]1[C@@]13OC4OC(=O)[C@H](O)C45[C@H](C(C)(C)C)[C@@H](O)C(OC1=O)[C@]53[C@H]2O (some centres unmarked) [Ginkgolide M]
PAFR antagonist activity (in words) [1]: PAFR antagonist activity

Ginkgolide J
PAFR antagonist activity (in words) [1]: PAFR antagonist activity

C[C@@H]1C(=O)O[C@H]2C[C@@]34[C@H]5C[C@@H](C(C)(C)C)[C@]36[C@@H](OC(=O)[C@@H]6O)O[C@@]4(C(=O)O5)[C@]21O [Ginkgolide A]
PAFR antagonist activity (in words) [1]: PAFR antagonist

COc1ccc(-c2cc(=O)c3c(O)cc(O)c(-c4cc(-c5cc(=O)c6c(O)cc(OC)cc6o5)ccc4OC)c3o2)cc1 [Sciadopitysin]
cAMP phosphodiesterase inhibitory activity (in words) [2]: almost inactive

COc1ccc(NC(=S)N2CCc3c(sc4c3C(c3ccccc3Cl)=NCc3nnc(C)n3-4)C2)cc1 [BN 50730]
PAFR antagonistic activity compared to BN52021 ([1]; more potent than BN52021): up to several 10-fold

C=CC[C@@H]1/C=C(\C)C[C@H](C)C[C@H](OC)[C@H]2O[C@@](O)(C(=O)C(=O)N3CCCC[C@H]3C(=O)O[C@H](/C(C)=C/[C@@H]3CC[C@@H](O)[C@H](OC)C3)[C@H](C)[C@@H](O)CC1=O)[C@H](C)C[C@@H]2OC [FK506, tacrolimus]
plasma concentrations ([3]; continuous intravenous infusion, severe acute GVHD): 25 to 35 ng/mL | blood levels ([3]; low doses (0.1 mg/kg or less)): ~10 ng/mL | fraction of treated patients with greater than 1 year graft survival ([3]; low doses (0.1 mg/kg or less)): > 70% | +dP/dtmax (isolated rat hearts [4]; [7]): 422 ± 28 kPa/s | AF (aortic flow) (isolated rat hearts [4]; [7]): 10.6 ± 0.4 mL/min | CF (coronary flow) (isolated rat hearts [4]; [7]): 18.2 ± 1.0 mL/min | HR (heart rate) (isolated rat hearts [4]; [7]): 315 ± 9 beats/min | LVDP (left ventricular developed pressure) (isolated rat hearts [4]; [7]): 10.7 ± 0.6 kPa | +dP/dtmax (isolated rat hearts [4]; [8]): 447 ± 26 kPa/s | CF (coronary flow) (isolated rat hearts [4]; [8]): 16.9 ± 0.9 mL/min | HR (heart rate) (isolated rat hearts [4]; [8]): 306 ± 8 beats/min | LVDP (left ventricular developed pressure) (isolated rat hearts [4]; [8]): 11.9 ± 0.5 kPa | AF (aortic flow) (isolated rat hearts [4]; FK506 1 mg/kg/day oral 10 days, after 60-min reperfusion, 1 mg/kg/day): 10.9 ± 1.8 mL/min | AF (aortic flow) (isolated rat hearts [4]; FK506 1 mg/kg/day oral 10 days, after 60-min reperfusion, listed as FK 506, 1 mg/kg/day): 10.9 ± 0.6 mL/min | +dP/dtmax (isolated rat hearts [4]; [9]): 432 ± 17 kPa/s | AF (aortic flow) (isolated rat hearts [4]; [9]): 10.1 ± 0.6 mL/min | CF (coronary flow) (isolated rat hearts [4]; [9]): 17.5 ± 0.7 mL/min | HR (heart rate) (isolated rat hearts [4]; [9]): 302 ± 9 beats/min | LVDP (left ventricular developed pressure) (isolated rat hearts [4]; [9]): 11.2 ± 0.3 kPa | +dP/dtmax (isolated rat hearts [4]; [10]): 430 ± 34 kPa/s | AF (aortic flow) (isolated rat hearts [4]; [10]): 12.0 ± 0.9 mL/min | CF (coronary flow) (isolated rat hearts [4]; [10]): 18.0 ± 1.1 mL/min | HR (heart rate) (isolated rat hearts [4]; [10]): 298 ± 7 beats/min | LVDP (left ventricular developed pressure) (isolated rat hearts [4]; [10]): 11.0 ± 0.4 kPa | +dP/dtmax (isolated rat hearts [4]; [11]): 463 ± 23 kPa/s | AF (aortic flow) (isolated rat hearts [4]; [11]): 13.3 ± 1.0 mL/min | CF (coronary flow) (isolated rat hearts [4]; [11]): 18.4 ± 0.7 mL/min | HR (heart rate) (isolated rat hearts [4]; [11]): 282 ± 7 beats/min | LVDP (left ventricular developed pressure) (isolated rat hearts [4]; [11]): 12.0 ± 0.7 kPa | +dP/dtmax (isolated rat hearts [4]; [12]): 451 ± 32 kPa/s | AF (aortic flow) (isolated rat hearts [4]; [12]): 11.2 ± 0.8 mL/min | CF (coronary flow) (isolated rat hearts [4]; [12]): 18.1 ± 0.8 mL/min | HR (heart rate) (isolated rat hearts [4]; [12]): 279 ± 8 beats/min | LVDP (left ventricular developed pressure) (isolated rat hearts [4]; [12]): 11.5 ± 0.4 kPa | +dP/dtmax (isolated rat hearts [4]; [13]): 478 ± 44^a kPa/s | AF (aortic flow) (isolated rat hearts [4]; [13]): 12.0 ± 1.2 mL/min | CF (coronary flow) (isolated rat hearts [4]; [13]): 20.0 ± 1.4 mL/min | HR (heart rate) (isolated rat hearts [4]; [13]): 308 ± 8 beats/min | LVDP (left ventricular developed pressure) (isolated rat hearts [4]; [13]): 11.5 ± 0.5 kPa | +dP/dtmax (isolated rat hearts [4]; [14]): 472 ± 32 kPa/s | AF (aortic flow) (isolated rat hearts [4]; [14]): 13.3 ± 1.2 mL/min | CF (coronary flow) (isolated rat hearts [4]; [14]): 19.6 ± 1.2 mL/min | HR (heart rate) (isolated rat hearts [4]; [14]): 310 ± 9 beats/min | LVDP (left ventricular developed pressure) (isolated rat hearts [4]; [14]): 12.3 ± 0.7 kPa | +dP/dtmax (isolated rat hearts [4]; [15]): 463 ± 29 kPa/s | AF (aortic flow) (isolated rat hearts [4]; [15]): 11.4 ± 0.7 mL/min | CF (coronary flow) (isolated rat hearts [4]; [15]): 18.8 ± 0.7 mL/min | HR (heart rate) (isolated rat hearts [4]; [15]): 307 ± 7 beats/min | LVDP (left ventricular developed pressure) (isolated rat hearts [4]; [15]): 11.7 ± 0.6 kPa | +dP/dtmax (isolated rat hearts [4]; [16]): 536 ± 28^a kPa/s | AF (aortic flow) (isolated rat hearts [4]; [16]): 17.4 ± 0.8^a ml/min | CF (coronary flow) (isolated rat hearts [4]; [16]): 23.1 ± 1.1^a ml/min | HR (heart rate) (isolated rat hearts [4]; [16]): 298 ± 9 beats/min | LVDP (left ventricular developed pressure) (isolated rat hearts [4]; [16]): 13.5 ± 0.6^a kPa | +dP/dtmax (isolated rat hearts [4]; [17]): 544 ± 31^a kPa/s | AF (aortic flow) (isolated rat hearts [4]; [17]): 19.8 ± 1.5^a ml/min | CF (coronary flow) (isolated rat hearts [4]; [17]): 22.0 ± 1.1^a ml/min | HR (heart rate) (isolated rat hearts [4]; [17]): 297 ± 8 beats/min | LVDP (left ventricular developed pressure) (isolated rat hearts [4]; [17]): 14.1 ± 0.6^a kPa | +dP/dtmax (isolated rat hearts [4]; [18]): 519 ± 26^a kPa/s | AF (aortic flow) (isolated rat hearts [4]; [18]): 17.3 ± 1.1^a ml/min | CF (coronary flow) (isolated rat hearts [4]; [18]): 21.2 ± 1.1^a ml/min | HR (heart rate) (isolated rat hearts [4]; [18]): 295 ± 6 beats/min | LVDP (left ventricular developed pressure) (isolated rat hearts [4]; [18]): 13.2 ± 0.5^a kPa | +dP/dtmax (isolated rat hearts [4]; [19]): 557 ± 31^a kPa/s | AF (aortic flow) (isolated rat hearts [4]; [19]): 20.6 ± 1.3^a ml/min | CF (coronary flow) (isolated rat hearts [4]; [19]): 24.7 ± 1.5^a ml/min | HR (heart rate) (isolated rat hearts [4]; [19]): 291 ± 7 beats/min | LVDP (left ventricular developed pressure) (isolated rat hearts [4]; [19]): 14.1 ± 0.6^a kPa | +dP/dtmax (isolated rat hearts [4]; [20]): 594 ± 26^a kPa/s | AF (aortic flow) (isolated rat hearts [4]; [20]): 22.9 ± 2.1^a ml/min | CF (coronary flow) (isolated rat hearts [4]; [20]): 23.5 ± 0.8^a ml/min | HR (heart rate) (isolated rat hearts [4]; [20]): 286 ± 9 beats/min | LVDP (left ventricular developed pressure) (isolated rat hearts [4]; [20]): 15.3 ± 0.6^a kPa | +dP/dtmax (isolated rat hearts [4]; [21]): 568 ± 33^a kPa/s | AF (aortic flow) (isolated rat hearts [4]; [21]): 20.0 ± 1.8^a ml/min | CF (coronary flow) (isolated rat hearts [4]; [21]): 22.8 ± 1.8^a ml/min | HR (heart rate) (isolated rat hearts [4]; [21]): 289 ± 8 beats/min | LVDP (left ventricular developed pressure) (isolated rat hearts [4]; [21]): 14.6 ± 0.6^a kPa | change of preischemic HR, CF, AF, LVDP and +LVdP/dtmax (in words) (isolated rat hearts [4]; FK506 treatment, before ischemia, versus drug-free group): No significant changes | incidence of reperfusion-induced total (irreversible plus reversible) VF (isolated rat hearts [5]; FK506 1 mg/kg/day oral 10 days): 92% | incidence of reperfusion-induced total (irreversible plus reversible) VF (isolated rat hearts [5]; FK506 5 mg/kg/day oral 10 days): 83% | incidence of reperfusion-induced total (irreversible plus reversible) VF (isolated rat hearts [5]; FK506 10 mg/kg/day oral 10 days): 67% | incidence of reperfusion-induced total (irreversible plus reversible) VF (isolated rat hearts [5]; FK506 20 mg/kg/day oral 10 days): 33% | incidence of reperfusion-induced total (irreversible plus reversible) VF (isolated rat hearts [5]; FK506 40 mg/kg/day oral 10 days): 25%

O=c1cc(-c2ccc(O)c(O)c2)oc2cc(O[C@@H]3O[C@H](CO)[C@@H](O)[C@H](O)[C@H]3O)cc(O)c12 [luteolin-7-glucoside]
cardioprotective effects [6]: 186%
